Data reported in article PMC10846744, “Cathelicidin peptide analogues inhibit EV71 infection through blocking viral entry and uncoating” (PLOS Pathogens, 2024).
Where no end group is shown, it is not given here.

Tests used:
EV71 virus [1] = assay: Time-of-addition study; type: cell-based, enterovirus 71 (EV71)
Procedure: Fig 2 LL-18 and FF-18 inhibit EV71 infection at the early stages of infection. (A-B) NanoLuc-EV71 reporter virus (A) or EV71 virus (MOI = 1, B) was pre-incubated with 1.5 μM LL-18 or FF-18 for 1 hr before they were used to infect RD cells. Luciferase (A) or viral RNA (B) was determined at indicated time points. Viral RNAs were normalized to mock treated cells at 1 h.p.i. ***, P<0.001. (C-E) EV71 virus (MOI = 1) was either pre-incubated with 1.5 μM LL-18 before infection (-2 and -1 time points), added simultaneously with LL-18 (0 time point) or LL-18 was added at indicated time points post-infection (1, 2, 4, 7 time points) and viral VP1 expression (C), cell viability (D), or viral titer (E) was determined 24 h.p.i. ns, not significant; **, P<0.01; ***, P<0.001. (F-H) EV71 virus (MOI = 1) was either pre-incubated with 1.5 μM FF-18 before infection (-2 and -1 time points), added simultaneously with FF-18 (0 time point) or FF-18 was added at indicated time points post-infection (1, 2, 4, 7 time points) and viral VP1 expression (F), cell viability (G), or viral titer (H) was determined 24 h.p.i. ns, not significant; **, P<0.01; ***, P<0.001.
Synthetic peptides were purchased from Bioyears Co. Ltd. (Wuhan, China) with purity of more than 95% and dissolved in PBS. […] Cell viability, viral titer, or viral protein expression was determined 24 h.p.i. […]

[2] = test system: mouse-adapted EV71 (mEV71); assay: mEV71 infection model in 6-day-old ICR mice; type: in vivo
Procedure: Fig 7 LL-18 inhibits mEV71 infection in vivo. (A) mEV71 was pre-treated with PBS or LL-18 and used to infect 6-day old ICR mice. The survival rate of mice infected with the mEV71 virus with or without LL-18 was recorded. (B) Mice infected with the mEV71 virus with or without LL-18 pre-treatment were sacrificed 1 day post infection (d.p.i.) and viral titers from brain and muscle tissues were determined. ***, P<0.001. (C) H&E staining of muscle tissue from mice infected with the mEV71 virus with or without LL-18. Blue arrows indicate infiltrated neutrophils. Bar, 20μm.
To prepare the mouse-adapted EV71 strain, the parental EV71 virus was intraperitoneally (i.p.) inoculated into 3-day-old ICR mice. Virus was then isolated from the brain tissue and inoculated into RD cells to amplify virus. […] 1×10^9 PFU/ml mEV71 was then incubated with an equal volume of PBS or LL-18 (20 mg/kg) for one hour, and used to infect 6-day-old ICR newborn mice intraperitoneally. Mice were monitored daily to record survival rate. Meanwhile, brain and muscle tissues were collected 1-day post infection for viral titration or H&E staining.
Supplementary file ppat.1011967.s005.tif: S5 Fig LL-18 inhibits mEV71 infection in vivo. (A) 6-day-old ICR mice were infected with parental EV71 or mouse-adapted virus (mEV71) and the mice survival rate was determined. (B) RD cells infected with mEV71 pre-incubated with PBS or LL-18 for 1 hr were determined for virus titer 24 h.p.i. ***, P<0.001. (C) ICR mice infected with mEV71 or mEV71 pre-incubated with the indicated amount of LL-18 were sacrificed at 1 d.p.i. and viral titers from muscle were determined. ns, not significant; ***, P<0.001. (TIF) Click here for additional data file.

EV71 virus [3] = assay: 1H NMR titration of peptide with EV71 virus; type: binding, enterovirus 71 (EV71); conditions: molar ratio peptide to virus 90:1, 800 MHz, 298k
Procedure: The NMR titrations were performed on a Bruker 800 MHz (Avance NEO) spectrometer equipped with cryo-probe. The molar ratio of the peptide to the virus was 90:1. The experiments were recorded using zgespg pulse for 128 scans at 298k and the results were analyzed by Topspin.

FRKSKEKIGKLFKRIVQRILDFLRNLV [LL-18]
inhibition of VP1 expression, virus-induced cell death, virus titer; peptide added after virus infection (EV71 virus [1]): little inhibition
inhibition of VP1 expression, virus-induced cell death, virus titer; peptide added before virus infection (EV71 virus [1]): Potent inhibition
survival rate of infected suckling mice ([2]; 6-day-old ICR mice, mEV71 pre-incubated 1 hour with LL-18 (20mg/kg), intraperitoneal): could increase the sucking mouse survival rate
viral loads of brain and muscle ([2]; 6-day-old ICR mice, mEV71 pre-incubated with LL-18 (20mg/kg), i.p., 1 d.p.i): significantly decreased the viral loads in both brain and muscle
inflammatory cell infiltration in muscle (H&E histology) ([2]; 6-day-old ICR mice, mEV71 with LL-18 (20mg/kg)): improved with the administration of LL-18
viral load in muscle, dose finding ([2]; ICR mice, mEV71 pre-incubated with 20 mg/kg LL-18, 1 d.p.i. (S5C Fig)): could significantly reduce the viral load
interaction of peptide with EV71 virus by 1H 1D NMR (amide region) (EV71 virus [3]): chemical shift perturbation with multiple new peaks was observed
